Laboratory results reported in PubChem BioAssay AID330 (DTP/NCI, 2004).
Several values for one entry are separate records, joined by “and”; a condition that tells them apart may be missing. Identical values can stand only once. Inconclusive results and toxic doses are left out. The calls were made as follows: active = survival T/C of 150% or more; inactive = T/C below 125% in these data.

Tested on: P388 leukemia ip, CD2F1 mice, survival T/C
Test: NCI In Vivo Anticancer Drug Screen. Data for tumor model P388 Leukemia (intraperitoneal) in CD2F1 (CDF1) mice
Details: endpoint: median survival time, higher = longer survival
In short: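 Mice carrying the transplanted tumor received test compound or vehicle. Survival was recorded in each group, and the value is the treated-group measurement divided by that of the vehicle-treated control group.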

[1] = dose: 50.0 mg/kg/injection, schedule: Q01DX009 (ip), vehicle: saline with Tween-80
[2] = dose: 50.0 mg/kg/injection, schedule: Q01DX009 (ip), vehicle: saline
[3] = dose: 100.0 mg/kg/injection, schedule: Q01DX009 (ip), vehicle: saline with Tween-80
[4] = dose: 100.0 mg/kg/injection, schedule: Q01DX009 (ip), vehicle: saline
[5] = dose: 200.0 mg/kg/injection, schedule: Q01DX009 (ip), vehicle: saline with Tween-80
[6] = dose: 200.0 mg/kg/injection, schedule: Q01DX009 (ip), vehicle: saline
[7] = dose: 100.0 mg/kg/injection, schedule: Q04DX002 (ip), vehicle: saline with Tween-80
[8] = dose: 60.0 mg/kg/injection, schedule: Q01DX005 (ip), vehicle: saline with Tween-80
[9] = dose: 120.0 mg/kg/injection, schedule: Q01DX005 (ip), vehicle: saline with Tween-80
[10] = dose: 240.0 mg/kg/injection, schedule: Q01DX005 (ip), vehicle: saline with Tween-80
[11] = dose: 100.0 mg/kg/injection, schedule: Q01DX001 (ip), vehicle: Klucel (hydroxypropylcellulose) (HPC)
[12] = dose: 200.0 mg/kg/injection, schedule: Q01DX001 (ip), vehicle: Klucel (hydroxypropylcellulose) (HPC)
[13] = dose: 400.0 mg/kg/injection, schedule: Q01DX001 (ip), vehicle: Klucel (hydroxypropylcellulose) (HPC)
[14] = dose: 25.0 mg/kg/injection, schedule: Q01DX009 (ip), vehicle: saline with Tween-80
[15] = dose: 50.0 mg/kg/injection, schedule: Q01DX005 (ip), vehicle: Klucel (hydroxypropylcellulose) (HPC)

Measured: T/C

CN1C2CCC1CC(OC(=O)/C=C/C(=O)OC1CC3CCC(C1)N3C)C2 (stereo not given)
inactive: dose: 60.0 mg/kg/injection, schedule: Q01DX005 (ip), vehicle: suspension in saline 91 % of control | dose: 120.0 mg/kg/injection, schedule: Q01DX005 (ip), vehicle: suspension in saline 91 % of control

Fc1ccccc1C(Nc1ncccn1)Nc1ncccn1
inactive: [1] 88 % of control | [2] 94 % of control | [3] 87 % of control | [4] 99 % of control | [5] 87 % of control | [6] 94 % of control

C/C(=N\O)c1cc(/C(C)=N/O)cc(/C(C)=N/O)c1
inactive: [2] 108 % of control | [4] 92 % of control

O=C(Nc1cccc2ccccc12)OCCN=Cc1ccccc1O.O=C(Nc1cccc2ccccc12)OCCN=Cc1ccccc1O.[Cu]
inactive: [7] 94 % of control | dose: 200.0 mg/kg/injection, schedule: Q04DX002 (ip), vehicle: saline with Tween-80 94 % of control | dose: 400.0 mg/kg/injection, schedule: Q04DX002 (ip), vehicle: saline with Tween-80 107 % of control and 94 % of control

CC(=O)N[C@H]1CCC2[C@@H]3CCC4=CC(=O)NCC[C@]4(C)C3CC[C@@]21C (stereo not given in full)
inactive: [8] 95 % of control | [9] 92 % of control | [10] 94 % of control

C=C1C(=O)C(CCC)=C(CC)C1O (stereo not given)
inactive: [8] 105 % of control

CCN(CCN(C)c1ccccc1)Cc1ccccc1
inactive: [1] 105 % of control | [3] 103 % of control | [5] 105 % of control

C=CC1(C)N=C1N(C)C (stereo not given)
inactive: [2] 105 % of control | [4] 97 % of control | [6] 96 % of control

CC(C)N(C(=O)c1ccc(Cl)c(Cl)c1)C(C)C
inactive: dose: 12.5 mg/kg/injection, schedule: Q04DX003 (ip), vehicle: saline with Tween-80 102 % of control and 103 % of control | dose: 25.0 mg/kg/injection, schedule: Q04DX003 (ip), vehicle: saline with Tween-80 102 % of control and 97 % of control | dose: 50.0 mg/kg/injection, schedule: Q04DX003 (ip), vehicle: saline with Tween-80 100 % of control and 97 % of control | dose: 100.0 mg/kg/injection, schedule: Q04DX003 (ip), vehicle: saline with Tween-80 103 % of control and 106 % of control (2×) | dose: 200.0 mg/kg/injection, schedule: Q04DX003 (ip), vehicle: saline with Tween-80 105 % of control | dose: 400.0 mg/kg/injection, schedule: Q04DX003 (ip), vehicle: saline with Tween-80 101 % of control

CCCCOP(=O)(O)SP(=O)(O)OCCCC
inactive: [11] 103 % of control | dose: 100.0 mg/kg/injection, schedule: Q01DX001 (ip), vehicle: saline 103 % of control and 106 % of control and 98 % of control | dose: 100.0 mg/kg/injection, schedule: Q04DX003 (ip), vehicle: suspension in saline 105 % of control | [12] 119 % of control | dose: 200.0 mg/kg/injection, schedule: Q01DX001 (ip), vehicle: saline 106 % of control and 98 % of control and 103 % of control | dose: 200.0 mg/kg/injection, schedule: Q04DX003 (ip), vehicle: suspension in saline 105 % of control | [13] 104 % of control | dose: 400.0 mg/kg/injection, schedule: Q01DX001 (ip), vehicle: saline 106 % of control and 103 % of control and 94 % of control | dose: 400.0 mg/kg/injection, schedule: Q04DX003 (ip), vehicle: suspension in saline 110 % of control

O=C1C(O)[C@@H](O)C(=O)N1Cc1ccccc1 (stereo not given in full)
inactive: dose: 60.0 mg/kg/injection, schedule: Q01DX005 (ip), vehicle: Klucel (hydroxypropylcellulose) (HPC) 97 % of control | dose: 120.0 mg/kg/injection, schedule: Q01DX005 (ip), vehicle: Klucel (hydroxypropylcellulose) (HPC) 102 % of control | dose: 240.0 mg/kg/injection, schedule: Q01DX005 (ip), vehicle: Klucel (hydroxypropylcellulose) (HPC) 93 % of control

FC(F)(F)c1cccc(C(Nc2nncs2)Nc2nncs2)c1
inactive: dose: 50.0 mg/kg/injection, schedule: Q01DX005 (ip), vehicle: saline with Tween-80 96 % of control | dose: 100.0 mg/kg/injection, schedule: Q01DX005 (ip), vehicle: saline with Tween-80 91 % of control | dose: 200.0 mg/kg/injection, schedule: Q01DX005 (ip), vehicle: saline with Tween-80 88 % of control

COc1cc2c(cc1OC)-c1cccc3c1N(CC2)CC3
inactive: dose: 25.0 mg/kg/injection, schedule: Q04DX002 (ip), vehicle: saline with Tween-80 100 % of control | dose: 50.0 mg/kg/injection, schedule: Q04DX002 (ip), vehicle: saline with Tween-80 98 % of control | [7] 100 % of control

Nc1nc(N)c(N=O)c(Nc2cccc(Br)c2)n1
inactive: dose: 12.5 mg/kg/injection, schedule: Q01DX009 (ip), vehicle: saline with Tween-80 99 % of control | [14] 99 % of control | [1] 90 % of control | [3] 91 % of control

CCCCCCCCCCCCSCN(CC)CC
inactive: dose: 25.0 mg/kg/injection, schedule: Q01DX009 (ip), vehicle: saline 89 % of control | [2] 99 % of control and 111 % of control | [4] 101 % of control and 103 % of control

CN(C)C(=S)/N=C1\SCS(=O)(=O)N1C
inactive: [14] 91 % of control | [1] 110 % of control | [3] 100 % of control

NNC(=O)c1ccccc1NC(=O)CSc1nc2ccccc2s1
inactive: dose: 50.0 mg/kg/injection, schedule: Q01DX009 (ip), vehicle: Klucel (hydroxypropylcellulose) (HPC) 104 % of control | dose: 100.0 mg/kg/injection, schedule: Q01DX009 (ip), vehicle: Klucel (hydroxypropylcellulose) (HPC) 101 % of control | dose: 200.0 mg/kg/injection, schedule: Q01DX009 (ip), vehicle: Klucel (hydroxypropylcellulose) (HPC) 101 % of control

CCOC(=O)C1=C(O)c2ccccc2S(=O)(=O)N1C (tested in a mixture with another compound)
inactive: [8] 98 % of control | [9] 107 % of control | [10] 97 % of control

O=c1[nH]cnc2cc(NCc3ccccc3)c([N+](=O)[O-])cc12
inactive: dose: 100.0 mg/kg/injection, schedule: Q04DX003 (ip), vehicle: Klucel (hydroxypropylcellulose) (HPC) 100 % of control | dose: 200.0 mg/kg/injection, schedule: Q04DX003 (ip), vehicle: Klucel (hydroxypropylcellulose) (HPC) 96 % of control | dose: 400.0 mg/kg/injection, schedule: Q04DX003 (ip), vehicle: Klucel (hydroxypropylcellulose) (HPC) 94 % of control

CC1(C)OOC(C)(O)C1Br (stereo not given)
inactive: dose: 50.0 mg/kg/injection, schedule: Q04DX003 (ip), vehicle: saline 95 % of control | dose: 100.0 mg/kg/injection, schedule: Q04DX003 (ip), vehicle: saline 103 % of control | dose: 200.0 mg/kg/injection, schedule: Q04DX003 (ip), vehicle: saline 95 % of control

CCn1nnnc1-c1ccccc1
inactive: [11] 91 % of control | [12] 88 % of control | [13] 91 % of control

O=c1cnc(=O)[nH][nH]1
inactive: [8] 103 % of control | [9] 91 % of control | [10] 93 % of control

COc1ccccc1/C=C1/C(=O)N(c2ccc([N+](=O)[O-])cc2)N=C1C
inactive: [15] 102 % of control | dose: 100.0 mg/kg/injection, schedule: Q01DX005 (ip), vehicle: Klucel (hydroxypropylcellulose) (HPC) 103 % of control | dose: 200.0 mg/kg/injection, schedule: Q01DX005 (ip), vehicle: Klucel (hydroxypropylcellulose) (HPC) 101 % of control

Cc1cc(N/N=C/c2ccc([N+](=O)[O-])cc2)c2cc3c(cc2n1)OCO3
inactive: dose: 12.5 mg/kg/injection, schedule: Q01DX005 (ip), vehicle: Klucel (hydroxypropylcellulose) (HPC) 100 % of control | dose: 25.0 mg/kg/injection, schedule: Q01DX005 (ip), vehicle: Klucel (hydroxypropylcellulose) (HPC) 102 % of control | [15] 101 % of control and 104 % of control

CC1C2Cc3ccc(O)cc3C1(C)CCN2Cc1ccoc1 (stereo not given)
inactive: [2] 96 % of control | [4] 99 % of control

O=[N+]([O-])c1ccc(SNc2ccc(NSc3ccc([N+](=O)[O-])cc3)cc2)cc1
inactive: dose: 12.5 mg/kg/injection, schedule: Q01DX001 (ip), vehicle: saline with Tween-80 95 % of control | dose: 25.0 mg/kg/injection, schedule: Q01DX001 (ip), vehicle: saline with Tween-80 100 % of control | dose: 50.0 mg/kg/injection, schedule: Q01DX001 (ip), vehicle: saline with Tween-80 100 % of control

C=CC1(C)CC(=O)C2(O)C(C)(O1)C(OC(C)=O)C(O)C1C(C)(C)CCC(O)C12C (stereo not given)
inactive: dose: 2.0 mg/kg/injection, schedule: Q01DX005 (ip), vehicle: other 99 % of control | dose: 4.0 mg/kg/injection, schedule: Q01DX005 (ip), vehicle: other 100 % of control | dose: 8.0 mg/kg/injection, schedule: Q01DX005 (ip), vehicle: other 95 % of control | dose: 16.0 mg/kg/injection, schedule: Q01DX005 (ip), vehicle: other 94 % of control
